Results published in publication PMC6320956, “O-Aminoalkyl-O-Trimethyl-2,3-Dehydrosilybins: Synthesis and In Vitro Effects Towards Prostate Cancer Cells” (Molecules, 2018).

How the values were obtained:
Assay type in all cases: cell-based, human
[1] = test system: PC-3 cells; assay: WST-1 cell proliferation assay, PC-3; details: for IC50: Homo sapiens, PC-3, 72 h, WST-1, three days of exposure, mean ± SD, n = 3; for IC50 (Silibinin)/IC50(Derivative) PC-3: fold potency relative to silibinin
Procedure: (§1) The in vitro antiproliferative activities of six 7-O-substituted and 26 3-O-substituted silybin derivatives were evaluated using the WST-1 cell proliferation assay, according to the procedure as described in the Experimental Section in both androgen-sensitive (LNCaP) and androgen-insensitive (PC-3 and DU145) human prostate cancer cell lines. Silibinin and docetaxel were used as a positive control for comparison in the parallel experiments and the IC50 values calculated from the dose-response curves are summarized in Table 1. […] A three-carbon linker in 11 and 29, as well as a five-carbon linker in 31, 37 and 40, are beneficial to the potency.
(§2) All cell lines were initially purchased from American Type Culture Collection (ATCC^TM) (Manassas, VA, USA). The PC-3 and LNCaP prostate cancer cell lines were routinely cultured in RPIM-1640 medium supplemented with 10% FBS and 1% penicillin/streptomycin. The DU145 prostate cancer cells were routinely cultured in Eagle’s Minimum Essential Medium (EMEM) supplemented with 10% FBS and 1% penicillin/streptomycin. Cultures were maintained in a high humidity environment supplemented with 5% carbon dioxide at a temperature of 37 °C.
(§3) PC-3, DU145, or LNCaP cells were plated in 96-well plates at a density of 3,200 per well in 200 µL of culture medium. The cells were then separately treated with silibinin, or synthesized silibinin derivatives, at five different doses for three days, while equal treatment volumes of DMSO (0.25%) were used as the vehicle control. The cells were cultured in a CO2 incubator at 37 °C for three days. A total of 10 µL of the premixed WST-1 cell proliferation reagent (Clontech) was added to each well. After mixing gently for one min on an orbital shaker, the cells were incubated for an additional 3 h at 37 °C. To ensure a homogeneous distribution of color, it is important to mix gently on an orbital shaker for one min. The absorbance of each well was measured using a microplate reader (Synergy HT, BioTek, Winooski, VT, USA) at a wavelength of 430 nm. […] For calculating the IC50 values, a linear proliferative inhibition was made based on at least five dosages for each compound.

[2] = test system: DU145 cells; assay: WST-1 cell proliferation assay, DU145; details: for IC50: Homo sapiens, DU-145, 72 h, WST-1, three days of exposure, mean ± SD, n = 3; for IC50 (Silibinin)/IC50(Derivative) DU145: fold potency relative to silibinin
Procedure: as §1, §2, §3

[3] = test system: LNCaP cells; assay: WST-1 cell proliferation assay, LNCaP; details: for IC50: Homo sapiens, LNCaP, 72 h, WST-1, three days of exposure, mean ± SD, n = 3; for IC50 (Silibinin)/IC50(Derivative) LNCaP: fold potency relative to silibinin
Procedure: as §1, §2, §3

Row | SMILES | IC50 [1] [µM] | IC50 (Silibinin)/IC50(Derivative) PC-3 [1] | IC50 [2] [µM] | IC50 (Silibinin)/IC50(Derivative) DU145 [2] | IC50 [3] [µM] | IC50 (Silibinin)/IC50(Derivative) LNCaP [3]
1 | COc1cc(OC)c2c(=O)c(OCCCCN3CCCC3)c(-c3ccc4c(c3)OC(c3ccc(OC)c(OC)c3)C(CO)O4)oc2c1 (stereo not drawn) [Compound 33] | 7.49 ± 1.98 | 10 | 19.8 ± 2.38 | 5 | 8.06 ± 1.44 | 5
2 | COc1cc(OC)c2c(=O)c(OCCCN3CCCC3)c(-c3ccc4c(c3)OC(c3ccc(OC)c(OC)c3)C(CO)O4)oc2c1 (stereo not drawn) [Compound 32] | 2.86 ± 0.79 | 25 | 14.1 ± 2.79 | 7 | 5.89 ± 0.3 | 7
3 | CCN(CC)CCCOc1c(-c2ccc3c(c2)OC(c2ccc(OC)c(OC)c2)C(CO)O3)oc2cc(OC)cc(OC)c2c1=O (stereo not drawn) [Compound 23] | 5.16 ± 0.94 | 14 | 9.21 ± 0.37 | 10 | 3.09 ± 0.15 | 14
4 | COc1cc(OC)c2c(=O)c(OCCCCN3CCNCC3)c(-c3ccc4c(c3)OC(c3ccc(OC)c(OC)c3)C(CO)O4)oc2c1 (stereo not drawn) [Compound 42] | 5.3 ± 0.66 | 14 | 6.85 ± 0.77 | 14 | 4.58 ± 1.77 | 10
5 | COc1ccc(C2Oc3cc(-c4oc5cc(OCCCN6CCCC6)cc(OC)c5c(=O)c4OC)ccc3OC2CO)cc1OC (stereo not drawn) [Compound 12] | 25.1 ± 1 | 3 | 19.6 ± 0.47 | 5 | 11 ± 0.99 | 4
6 | COc1cc(OC)c2c(=O)c(OCCCCN(C)C)c(-c3ccc4c(c3)OC(c3ccc(OC)c(OC)c3)C(CO)O4)oc2c1 (stereo not drawn) [Compound 21] | 5.15 ± 2.13 | 14 | 9.97 ± 3.34 | 9 | 5.13 ± 0.89 | 9
7 | COc1cc(OC)c2c(=O)c(OCCCCN3CCOCC3)c(-c3ccc4c(c3)OC(c3ccc(OC)c(OC)c3)C(CO)O4)oc2c1 (stereo not drawn) [Compound 39] | 3.49 ± 0.24 | 21 | 6.36 ± 0.37 | 15 | 2.84 ± 0.22 | 15
8 | CC(=O)O[C@@]12CO[C@@H]1C[C@H](O)[C@@]1(C)C(=O)[C@H](O)C3=C(C)[C@@H](OC(=O)[C@H](O)[C@@H](NC(=O)OC(C)(C)C)c4ccccc4)C[C@@](O)([C@@H](OC(=O)c4ccccc4)[C@H]21)C3(C)C [Docetaxel, docetaxel, reference compound] | 0.0019 ± 0.0006 | – | 0.0012 ± 0.0003 | – | 0.0002 ± 0.0001 | –
9 | COc1cc(OC)c2c(=O)c(OCCCCN3CCCCC3)c(-c3ccc4c(c3)OC(c3ccc(OC)c(OC)c3)C(CO)O4)oc2c1 (stereo not drawn) [Compound 36] | 24.1 ± 10.6 | 3 | 67 ± 13.7 | 1 | 27.3 ± 5.42 | 2
10 | COc1ccc(C2Oc3cc(-c4oc5cc(OCCCN6CCOCC6)cc(OC)c5c(=O)c4OC)ccc3OC2CO)cc1OC (stereo not drawn) [Compound 13] | 26.5 ± 1 | 3 | 45.1 ± 11.5 | 2 | 12.7 ± 6.28 | 3
11 | COc1cc(OC)c2c(=O)c(OCCCCCN3CCCC3)c(-c3ccc4c(c3)OC(c3ccc(OC)c(OC)c3)C(CO)O4)oc2c1 (stereo not drawn) [Compound 34] | 2.95 ± 0.76 | 25 | 5.9 ± 1.3 | 16 | 3.92 ± 1.67 | 11
12 | COc1cc(OC)c2c(=O)c(OCCCN3CCN(C)CC3)c(-c3ccc4c(c3)OC(c3ccc(OC)c(OC)c3)C(CO)O4)oc2c1 (stereo not drawn) [Compound 44] | 8.45 ± 2.89 | 9 | 18.6 ± 7.67 | 5 | 12.8 ± 7.8 | 3
13 | CCN(CC)CCCCOc1c(-c2ccc3c(c2)OC(c2ccc(OC)c(OC)c2)C(CO)O3)oc2cc(OC)cc(OC)c2c1=O (stereo not drawn) [Compound 24] | 5.76 ± 1.36 | 11 | 8.18 ± 0.42 | 8 | 5.19 ± 2.08 | 13
14 | CCN(CC)CCCCCOc1c(-c2ccc3c(c2)OC(c2ccc(OC)c(OC)c2)C(CO)O3)oc2cc(OC)cc(OC)c2c1=O (stereo not drawn) [Compound 25] | 6.41 ± 0.4 | 11 | 6.64 ± 0.54 | 14 | 6.33 ± 0.34 | 7
15 | COc1cc(OC)c2c(=O)c(OCCCCCN(C)C)c(-c3ccc4c(c3)OC(c3ccc(OC)c(OC)c3)C(CO)O4)oc2c1 (stereo not drawn) [Compound 22] | 3.47 ± 2.23 | 21 | 6.73 ± 0.45 | 14 | 5.07 ± 0.52 | 9
16 | COc1cc(OC)c2c(=O)c(OCCCN3CCOCC3)c(-c3ccc4c(c3)OC(c3ccc(OC)c(OC)c3)C(CO)O4)oc2c1 (stereo not drawn) [Compound 38] | 2.94 ± 0.13 | 25 | 10.6 ± 0.63 | 9 | 1.74 ± 0.97 | 25
17 | CCCN(CCC)CCCCOc1c(-c2ccc3c(c2)OC(c2ccc(OC)c(OC)c2)C(CO)O3)oc2cc(OC)cc(OC)c2c1=O (stereo not drawn) [Compound 27] | 3.77 ± 0.41 | 19 | 5.39 ± 0.53 | 17 | 4.02 ± 1.55 | 11
18 | CCCN(CCC)CCCCCOc1c(-c2ccc3c(c2)OC(c2ccc(OC)c(OC)c2)C(CO)O3)oc2cc(OC)cc(OC)c2c1=O (stereo not drawn) [Compound 28] | 3.3 ± 0.86 | 22 | 5.78 ± 1.36 | 16 | 2.7 ± 0.47 | 16
19 | COc1ccc(C2Oc3cc(-c4oc5cc(OCCCN6CCN(C)CC6)cc(OC)c5c(=O)c4OC)ccc3OC2CO)cc1OC (stereo not drawn) [Compound 14] | 25.7 ± 3.39 | 3 | 19.4 ± 0.88 | 5 | 16.4 ± 3.47 | 3
20 | COc1cc(OC)c2c(=O)c(OCCCCCN3CCN(C)CC3)c(-c3ccc4c(c3)OC(c3ccc(OC)c(OC)c3)C(CO)O4)oc2c1 (stereo not drawn) [Compound 45] | 4.72 ± 0.88 | 15 | 8.59 ± 2.23 | 11 | 5.66 ± 0.44 | 8
